Measurements taken from article PMC6838142, “Nano-Antagonist Alleviates Inflammation and Allows for MRI of Atherosclerosis” (Nanotheranostics, 2019).

How the values were obtained:
[1] = tested on: RAW cells; experiment: Flow cytometry competition with excess free peptide; type: cell-based, mouse; details: excess (1 mM) free peptide
Description: Figure 1 Screening identifies CCTV as an anti-inflammatory nanoparticle with high affinity for CC chemokine receptor 2. A) A screening of a small library of nanoparticles in lipopolysaccharide (LPS)-stimulated macrophage reporter cells (RAW-Blue) identified CCTV, which downregulates nuclear factor-kappa B (NF-κB) activity. Each point on the plot represents a relative activity of NF-κB (X-coordinate) and corresponding nanoparticle content per mg of cell protein (Y-coordinate) calculated from nanoparticle fluorescence. […] Dexamethasone (Dex) is an NF-κB inhibitor and was used as a positive control. Vehicle-treated and unstained (US) cells served as a negative control. B) CCTV binding to the cell surface was validated in RAW cells using fluorescence microscopy. The cells were stained at 4 °C or room temperature for 30 min with CCTV or vehicle nanoparticles (sudo-colored green). […] E) The Basic Local Alignment Search Tool (BLAST) analysis determined that CCTV peptide sequence repeats in mouse and human CC chemokine receptor family. […]
For a targeted nanotherapy to be effective, the nanoparticles must have affinity to a specific cell type, usually determined by cell surface binding. […] Thus, we used the mouse macrophage reporter cell line RAW-Blue that allowed for monitoring activity of Nuclear Factor-kappa B (NF-kB) and also enabled In vitro quantitation of nanoparticle binding to the cell surface. […]

[2] = tested on: recombinant CCR2 protein; experiment: Competition with CCL2 binding to immobilized CCR2; details: free peptide 1 mM in dimethylformamide, 1 h room temperature, recombinant human CCL2; OD 450 nm; three independent experiments
Procedure: A sandwich-type plate-based immunoassay was developed in-house to study CCR2 receptor binding. Black opaque plates (for fluorescence studies) or clear high protein binding plates (for absorbance studies) were coated with recombinant CCR2 protein at 2 µg/mL in PBS overnight at 4 °C. Plates were washed 5 times with PBS and treated as follows: for nanoparticles binding, varying concentrations of fluorescent nanoparticles or vehicle control (see above) in PBS were added to the opaque plates and incubated for 4 h at room temperature. For peptide competition/binding studies, recombinant human CCL2 was added in clear plates at varying concentrations in PBS simultaneously with a large excess of peptides (1 mM final concentration, dissolved in dimethylformamide) and incubated for 1 h at room temperature. All plates were washed 5 times with PBS and fluorescence in opaque plates was read at 550 nm excitation and 620 nm emissions. […] Clear plates were washed and incubated with 0.1 µg/mL streptavidin-HRP. Finally, clear plates were washed and incubated with SigmaFast OPD reagent in the presence of hydrogen peroxide-urea, as per the manufacturer's instructions. After 30 min incubation period at 37 °C, the plates were read at 450 nm on a multiwell plate reader as described above. Fluorescence emission values and OD at 450 nm were plotted against concentration using a 4-parametric fit.

[3] = tested on: BMDMs from CCR2-knockout mice; experiment: Actin polymerization in BMDMs from CCR2-knockout mice; type: cell-based, mouse
Procedure: BMDMs were seeded and cultured on #1 glass coverslips in the presence or absence of 10 μM CCTV or VTCC for 6 h. Next, cells were washed with PBS and recombinant mouse CCL2 was added to a final concentration of 500 nM. Then, cells were incubated for varying times (indicated in Figure 2G), after which they were immediately placed on ice and washed 3 times with cold PBS. Actin polymerization was then visualized following staining with phalloidin Alexa Fluor 633, according to the manufacturer's instructions.

| Substance | reduction of CCTV nanoparticle staining by free peptide [1] | competition with CCL2 binding to CCR2 [2] | actin polymerization in CCR2-knockout BMDMs [3] |
| --- | --- | --- | --- |
| CCTV [free CCTV peptide, free (unconjugated) CCTV tetrapeptide] | did not show appreciable reduction in CCTV staining in RAW cells | insignificantly competed with receptor binding of natural CCR2 ligand | – |
| CCL2: recombinant mouse CCL2/MCP-1 protein, natural CCR2 ligand | – | – | neither nanoparticles nor CCL2 are able to induce polymerization |
